The values below come from US6025365A, “Chelerythrine and radiation combined tumor therapy” (Arch Development Corp., priority 1997, dated 2000).

For orientation: IC50 means the concentration at which inhibition is half-maximal. As usually defined, the LD50 is the dose at which mortality reaches 50%.

The test system of data set [1] is SQ-20B cells. Kind of data set: Viability by propidium iodide exclusion and FACS. As to conditions: 2.5 μM chelerythrine and 8 Gy. As for the experimental part:
Cells, 2.5-3.5×10^5, were cultured in 24-well tissue culture plates for all experiments following standard procedures as previously described (Chmura et al., 1996a; 1996b). Cells were treated with varying concentrations of chelerythrine, incubated for 30 minutes at 37° C. and then irradiated. Radiation for all samples was delivered using a ^60 Co-irradiator (Gammacell 220, Atomic Energy of Canada) at a dose rate of 2.0 Gy/sec. After the indicated time points, cells were harvested, washed once in PBS, and resuspended in PBS containing […] propidium iodide. […] Cells undergoing apoptosis also shrink in size. Cells were analyzed via flow cytometry (FACS) following standard procedures as described in (Chmura et al., 1996a; 1996b) on a FACScan (Becton-Dickson) using Lysis II software.

Data set [2] has as its system acidic sphingomyelinase. As to the kind of experiment: Mixed micellar assay, acidic sphingomyelinase activity in treated SQ-20B cells. The class given is cell-based, human. As to conditions: 5 μM chelerythrine 30 minutes then 10 Gy; within 5 minutes of IR. As to the method:
FIG. 5A. […] The mixed micellar assay for sphingomyelinase activity was used to quantitate increased enzymatic activity.
The mixed micellar sphingomyelinase assay using ^[14] C labeled sphingomyelin was performed as described (Wiegmann et al., 1994) with minor modifications as described herein. Exponentially growing cells 2×10^7 were treated, collected, and lysed in 200 μl of neutral buffer (20 mM Hepes, pH 7.4; 10 mM MgCl2, 2 mM EDTA, 5 mM DTT, […], 10 mM b-glycerolphosphate, 750 μM ATP, 1 mM PMSF, Leupeptin, Pepstatin, 2% Triton X-100) or an acid buffer (pH=5.5, 2% Triton X-100, 1 mM PMSF, Leupeptin, Pepstatin). After incubation for 5 minutes at 4° C., cells were homogenized by sonication and cell debris were removed by low speed centrifugation (800×g). The protein concentration was measured using the BioRad protein assay system (BioRad). Protein (50 μg) was incubated for 2 hours at 37° C. in a buffer (1 ml final volume) containing 20 mM HEPES, 1 mM MgCl2, and 0.9 μl [N-methyl-^14 C sphingomyelin].

Data set [3] concerns WEHI-231 cells. As to the kind of experiment: Apoptosis / cell death of WEHI-231 (propidium iodide FACS, gel electrophoresis, DAPI). As to conditions: 24 hours; chelerythrine 10 μM or calphostin C 250 nM. The class given is cell-based, murine. As for the experimental part:
Cells undergoing apoptosis also shrink in size.
Cells, 5×10^5, were centrifuged at 1000 rpm and resuspended in approximately 100 μl cell culture media. The cell suspension was then mixed with 100 μl of DAPI (4',6-iamidino-2-phenylindole, Sigma D9542, 1 μg/ml in PBT (PBS+1% Triton X-100)). One drop of this mixture was placed on a microslide with a coverslip. The cells were viewed by fluorescence microscopy using an Olympus BX-40 microscope with a 100 Watt Mercury lamp, a 16 or 40 X Fluorite objective, N.A. 0.75, (Leco #1-UB527) and a UV filter cube (ex 330-385 nm, em 420 nm, wide band pass, Leco #U-M536). Images were photographed using an Optronics cooled low-light video camera (Leco #DEI-470TB) to which was attached a 2X coupler (Leco #HR200-CMT). The image was saved to a digital file at 72 dpi.
DNA degradation was assessed as previously described (Gottschalk et al., 1993; 1994). Briefly, following treatment in 100 mm plates or 24 well plates, cells were collected and lysed in 0.5 ml lysis buffer (0.6% SDS+10 mM EDTA, pH 7.0). NaCl was added to a final concentration of 1M, mixed by inversion, incubated for 12 hours at 4° C. and then spun at 14,000 g for 30 minutes. Samples were treated with chloroform (1:1) and precipitated in ethanol prior to electrophoresis in a 3% agarose gel and visualized with ethidium bromide.

Data set [4] deals with WEHI-231 cells. Kind of data set: Ceramide production by DAG kinase assay. The following applies: Mus musculus, WEHI231, 0.5 h; 10 μM chelerythrine, approximately 30 minutes; read-out: ceramide generation increase. The class given is cell-based, murine. As to the method: FIG. 7A. Inhibition of PKC causes an increase in ceramide production through the activation of a neutral sphingomyelinase and decreases in sphingomyelin levels. Ceramide production was quantitated using the DAG kinase assay for WEHI-231 JM cells and total lipid extraction was used to assay sphingomyelin mass. Following addition of 10 μM chelerythrine, cells were lysed at the appropriate time points as described herein. Each data point represents the average percentage change in ceramide or sphingomyelin generation from baseline derived from at least 8 independent studies for all time points with the exception of those marked with * (n=4). Standard deviations depicted by error bars.
FIG. 7B. […] Ceramide production and sphingomyelin mass was quantitated identical to that for chelerythrine. Cells were lysed 2 hours following the addition of 250 nM calphostin C. […]
Quantitation of ceramide by diacylglycerol kinase was similar to that described by Dressler and Kolesnick (1990). […] Data was calculated as pmoles of ceramide/10^6 cells by scintillation counting. […]
In order to test whether PKC inhibition alters ceramide production, the DAG kinase assay was used to quantify intracellular ceramide following chelerythrine and calphostin C treatment (Dressler and Kolesnick, 1990; Preiss et al., 1986). […]

Data set [5] relates to L-1210 tumor cells. As to conditions: l1210 cells; cited from earlier work.
Data set [6] in a line: Acute lethality / tolerability in mice.

Consider `COc1ccc2c(c[n+](C)c3c4cc5c(cc4ccc23)OCO5)c1OC` [chelerythrine, 1,2-dimethoxy-12-methyl[1,3]benzodioxolo[5,6-c]phenanthridinium], for which, in data set [1], the “decrease in cell survival” value was 85%. Also, in data set [2], the “acidic sphingomyelinase activity, x-rays and chelerythrine” value is “about 170 % of control”. Moreover, the cell death entry in data set [3] is reported as “greater than 90%”. For the same compound, the activation at 10 µM in data set [4] was determined as 100%. For the same compound, the 50% inhibitory concentration (IC50) in data set [5] is 53 nM. In addition, the health of animals result in data set [6] (all treatment groups, throughout the xenograft study) is given as “appeared healthy throughout the study”. In addition, the LD50 in data set [6] (mouse, in vivo, ip) was 25 mg/kg.
